How the values were obtained:
[1] = MTS cell viability assay, MRC-5 cells, 72 h; assay type: cell-based, human; conditions: human, MRC-5 fetal lung fibroblast cells, % of viable cells compared to untreated cells 100%
Description: (§1) Upon completion of their syntheses, the in vitro activity of quinolone derivatives 3a–f, 4a–h, and 5a,b was evaluated by their growth-inhibitory potency in three cancer cell lines. At first, the viability of the synthesized compounds was examined with the MDA-MB-231 […] breast cancer cell line at concentrations of 10 µM, 15 µM, and 25 µM. Prostate cancer PC-3 cells and human fetal lung fibroblast MRC-5 cell lines were also subjected to this series of compounds at a unique concentration of 15 µM.
(§2) MDA-MB-231 cells were grown in L15 supplemented with 15% serum, 2 mM glutamine, and 22 mM sodium bicarbonate in the presence of Penicillin/Streptomycin antibiotic mixture. PC-3 cells were cultured in RPMI 1640 supplemented with 10% serum and 2 mM glutamine in the presence of Penicillin/Streptomycin antibiotic mixture. MRC-5 cells were cultured in EMEM supplemented with 10% serum and 2 mM glutamine in the presence of Penicillin/Streptomycin antibiotic mixture (Reagents were purchased from Sigma Aldrich, Saint-Quentin-Fallavier, France).
(§3) Cells were treated for 72 h with 10, 15, and 25 µM of the selected substances. Control cells were treated with the equivalent in DMSO.
(§4) Cell survival was assessed using the CellTiter Aqueous One Proliferation assay (Promega, Charbonnières-les-Bains, France) whereby 2500 or 5000 cells per well were seeded in 96-well plates in 100 µL. At the end of the treatment, 20 µL of reagent was added, and absorbance readings were taken at 492 nm on a 96-well plate reader after 3 h of contact (on average).

[2] = tested on: MDA-MB-231 cells; assay: MTS cell viability assay, MDA-MB-231 cells, 72 h; assay type: cell-based, human; conditions: % of viable cells compared to untreated cells 100%; for viability at 10 µM / viability at 15 µM / viability at 25 µM: Homo sapiens, MDA-MB-231, 72 h
Description: as §1, §2, §3, §4

[3] = tested on: PC-3 cells; assay: MTS cell viability / growth inhibition assay, PC-3 cells, 72 h; assay type: cell-based, human; conditions: 15 µM, 72 h, MTS, % of viable cells compared to untreated cells 100%; for viability at 15 µM: Homo sapiens, PC-3, 72 h
Description: as §1
Then, the growth inhibitory activities against PC-3 prostate cancer cell line were measured for the selected 3-heteroaryl-quinolin-2(1H)-one derivatives 3a–e.
as §2, §3, §4

[4] = tested on: human fetal lung fibroblast MRC-5; assay: MTS cell viability assay, MRC-5 cells, 72 h; assay type: cell-based; conditions: % of viable cells compared to untreated cells 100%
Description: as §1, §2, §3, §4

[5] = tested on: MCF7; conditions: Figure 1; cited from earlier work
[6] = tested on: SkBr3 cell lines; conditions: Figure 1; cited from earlier work

SMILES | viability at 72 h, 15 µM [1] [%] | viability at 10 µM ([2]; 10 µM) [%] | viability at 15 µM [2] [%] | viability at 25 µM ([2]; 25 µM) [%] | Cell viability [%] PC-3 (15 µM) [3] [%] | viability at 15 µM [3] [%] | Cell viability [%] MRC-5 (15 µM) [4] [%] | Cell viability [%] MDA-MB-231 ([2]; 25 µM) [%] | Cell viability [%] MDA-MB-231 ([2]; 10 µM) [%] | IC50 [5] [µM] | IC50 [6] [µM]
CSc1ncnc2c1nc(-c1cc3ccccc3n(C)c1=O)n2Cc1ccccc1 [C00005] | 88 | 73 | 70 | 50 | 61 |  |  |  |  |  | 
Cn1c(=O)c(-c2cc3ccccc3s2)cc2ccccc21 [C00006] |  | 98 |  |  |  |  |  |  |  |  | 
COc1ccc(-c2ncnc3c2nc(-c2cc4ccccc4n(C)c2=O)n3Cc2ccccc2)cc1 [C00007] | 94 | 66 | 81 | 87 |  | 73 |  |  |  |  | 
COc1cccc(-c2ncnc3c2nc(-c2cc4ccccc4n(C)c2=O)n3Cc2ccccc2)c1 [C00008] | 92 | 70 | 69 | 61 |  | 106 |  |  |  |  | 
Cn1c(=O)c(-c2nc3c(-c4ccccc4)ncnc3n2Cc2ccccc2)cc2ccccc21 [C00009] | 82 | 71 | 62 | 35 |  | 97 |  |  |  |  | 
COc1cc(-c2ncnc3c2nc(-c2cc4ccccc4n(C)c2=O)n3Cc2ccccc2)cc(OC)c1OC [C00010] |  | 60 | 47 | 55 |  | 89 |  |  |  |  | 
Cc1cc(C)cc(-c2ncnc3c2nc(-c2cc4ccccc4n(C)c2=O)n3Cc2ccccc2)c1 [C00011] |  | 57 | 62 | 50 | 56 |  | 71 |  |  |  | 
Cn1c(=O)c(-c2nc3c(-c4cccc5ccccc45)ncnc3n2Cc2ccccc2)cc2ccccc21 [C00012] | 98 | 73 | 81 | 92 |  | 88 |  |  |  |  | 
Cn1c(=O)c(-c2nc3c(-c4ccc(Cl)cc4)ncnc3n2Cc2ccccc2)cc2ccccc21 [C00013] |  | 56 | 57 |  |  | 91 | 79 | 27 |  |  | 
Cn1c(=O)c(-c2nc3c(-c4ccc(F)cc4)ncnc3n2Cc2ccccc2)cc2ccccc21 [C00014] | 84 | 55 | 42 |  |  | 97 |  | 17 |  |  | 
COc1ccc(Nc2ncnc3c2nc(-c2cc4ccccc4n(C)c2=O)n3Cc2ccccc2)cc1 [C00015] | 91 |  | 63 | 69 |  | 87 |  |  | 62 |  | 
COc1cc(Nc2ncnc3c2nc(-c2cc4ccccc4n(C)c2=O)n3Cc2ccccc2)cc(OC)c1OC [C00016] | 81 | 44 | 55 | 61 |  | 88 |  |  |  |  | 
COc1ccc(C(=O)Nc2cc3cc(Br)ccc3n(C)c2=O)cc1 [C00017, reference compound] |  | 76 |  |  |  |  |  |  |  |  | 
CO[C@@H]1[C@@H](OC(N)=O)[C@@H](O)[C@H](Oc2ccc3c(O)c(NC(=O)c4ccc(O)c(CC=C(C)C)c4)c(=O)oc3c2C)OC1(C)C [Novobiocin, novobiocin] |  |  |  |  |  |  |  |  |  | 260 | 
CC(C)NCCCn1c(Sc2cc3c(cc2I)OCO3)nc2c(N)ncnc21 [PU-H] |  |  |  |  |  |  |  |  |  |  | 0.05 to 0.09

Reference: publication PMC8778022, “Synthesis and Biological Activity of 3-(Heteroaryl)quinolin-2(1H)-ones Bis-Heterocycles as Potential Inhibitors of the Protein Folding Machinery Hsp90” (Molecules, 2022)
